Laboratory results published in patent publication US9481700B2, “Method for preparing isofagomine and its derivatives” (Amicus Therapeutics, Inc., priority 2007, dated 2016).
Where a name gives a salt, the structure may show the parent alone.

How the values were obtained:
GCase [1] = assay: Phase 2 clinical trials, GCase activity in Gaucher patients expressing certain missense mutations; format: in vivo, human; settings: Gaucher patients expressing certain missense mutations that create misfolded GCase
Description: (§1) In the absence of the “pharmacological chaperone,” the mutated enzyme protein misfolds in the ER (Ishii et al., Biochem. Biophys. Res. Comm. 1996; 220: 812-815), is retarded in its maturation to a final product, and is subsequently degraded by the ER-associated degradation mechanism. Homozygous mutant GCase is associated with the lysosomal storage disease Gaucher disease.

human GCase = target: T1, human GCase (Homo sapiens, UniProt P04062); assay: Phase 1 clinical trials, GCase activity in healthy volunteers; format: in vivo
T1 construct: human GCase in healthy volunteers; endogenous in cells
T1 sequence (P04062 40-536): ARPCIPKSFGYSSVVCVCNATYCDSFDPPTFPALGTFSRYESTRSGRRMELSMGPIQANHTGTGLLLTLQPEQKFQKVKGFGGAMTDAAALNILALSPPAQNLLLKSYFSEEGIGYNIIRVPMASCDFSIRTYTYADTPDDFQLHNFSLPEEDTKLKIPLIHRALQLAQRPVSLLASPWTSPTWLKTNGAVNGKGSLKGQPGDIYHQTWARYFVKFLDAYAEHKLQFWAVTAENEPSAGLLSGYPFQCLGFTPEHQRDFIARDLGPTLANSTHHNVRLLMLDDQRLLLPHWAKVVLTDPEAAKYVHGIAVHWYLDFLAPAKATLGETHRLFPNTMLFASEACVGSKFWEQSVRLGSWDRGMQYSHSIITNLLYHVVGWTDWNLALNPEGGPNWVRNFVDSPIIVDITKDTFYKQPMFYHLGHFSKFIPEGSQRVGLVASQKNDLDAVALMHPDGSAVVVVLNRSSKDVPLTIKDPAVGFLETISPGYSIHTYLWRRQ
Description: as §1

GCase [2] = assay: Mouse model of Gaucher disease expressing mutations in the Gba gene; settings: in vivo, unpublished data
Description: as §1

mutant GCase = settings: in vitro, fibroblasts from Gaucher patients; cited from earlier work

GCase activity (GCase [1])	increase of the activity of human GCase (human GCase)	SMILES	GCase activity (GCase [2])	phenotype (GCase [2])	activity of mutant GCase (mutant GCase)
increase in GCase activity	up to 3.5 fold	OC[C@H]1CNC[C@@H](O)[C@@H]1O [IFG tartrate]			
		OC[C@H]1CNC[C@@H](O)[C@@H]1O [IFG, (3R,4R,5R)-3,4-dihydroxy-5-hydroxymethyl-piperidine]	increases GCase activity	improves the phenotype	increase the activity of mutant GCase
